Data reported in patent publication US11926619B2, “Certain pladienolide compounds and methods of use” (EISAI R&D MANAGEMENT CO., LTD., priority 2018, dated 2024).

Legend:
[1] = test system: Panc 05.04 cells (pancreatic cancer cells; Q699H and K700E mutations in SF3B1); experiment: Cell viability assay (CellTiter-Glo, 72 hr), Panc 05.04 cells; assay type: cell-based; details: Panc 05.04 cells (mutant SF3B1); for Emax: maximum achievable response in tested dose range, negative value = cellular lethality, read-out: Panc 05.04 (mt SF3B1 cells) Emax (%); for GI50: read-out: Panc 05.04 (mt SF3B1 cells), GI50
In short: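 Panc 05.04 cells treated 72 hr at 37 °C with 9 compound concentrations (0.1% DMSO), duplicate or triplicate. ATP read by CellTiter-Glo; growth inhibition/viability calculated against a time-zero plate and DMSO control growth. Emax is the maximal response over the tested range, negative values meaning lethality.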

[2] = test system: WiDr-R cells (colon cancer cells; chemically-induced SF3B1 R1074H mutant); experiment: Cell viability assay (CellTiter-Glo, 72 hr), resistant WiDr-R cells (counter-screen); assay type: cell-based; details: WiDr-R cells (SF3B1 R1074H mutation, resistant); read-out: WiDr-R GI50
In short: (§1)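 Cells at 2000/well were exposed to 9 compound concentrations (0.1% DMSO) in duplicate or triplicate for 72 hr at 37 °C. ATP was read by CellTiter-Glo against a time-zero plate and DMSO control growth. Percent growth/viability was plotted against concentration to give Emax; negative values indicate lethality.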

[3] = test system: WiDr cells (colon cancer cells; wildtype SF3B1); experiment: Cell viability assay (CellTiter-Glo, 72 hr), WiDr cells; assay type: cell-based; details: Homo sapiens; WiDr cells (wildtype SF3B1); read-out: WiDr GI50
In short: as §1

[4] = target: T1, SF3b complexes (Homo sapiens, UniProt O75533+Q7RTV0); experiment: Scintillation proximity assay (SPA) with [3H]-labelled pladienolide probe; assay type: binding; details: wt SF3B1, read-out: SPA (wt SF3B1 cells) IC50
T1 construct: endogenous in cells
Description: Batch immobilization of anti-SF3B1 antibody (MBL) to anti-mouse PVT SPA scintillation beads (PerkinElmer) was prepared as follows: for every 2.5 mg of nuclear extracts, 5 μg anti-SF3B1 antibody and 1.5 mg of beads were mixed in 150 μl PBS. The antibody-bead mixture was incubated for 30 min at RT and centrifuged at 18,000 g for 5 min. 150 μl PBS was used to resuspend every 1.5 mg antibody-bead mixture. The beads were suspended and added to the prepared nuclear extracts. The slurry was incubated for 2 h at 4° C. with gentle mixing. The beads were then collected by centrifuging at 18,000 g for 5 min, and washed twice with PBS+0.1% Triton X-100. After a final centrifugation step, every 1.5 mg of beads was suspended with 150 μl of PBS. The SF3b complexes were tested for [^3H]-labelled pladienolide probe binding ([^3H]-PB), synthesized as previously described (Kotake et al., 2007). 100 μL binding reactions were prepared with 50 μl bead slurry and by adding varying concentrations of PB or PB—OH, and after 30 min pre-incubation, 2.5 nM [^3H]—PB was added. The mixture was incubated for 30 min, and luminescence signals were read using a MicroBeta2 Plate Counter (PerkinElmer). Prism 6 (Graphpad) was used for non-linear regression curve fitting of the data.

Compound | Emax [1] [%] | GI50 [1] [nM] | GI50 [2] [nM] | GI50 [3] [nM] | IC50 [4] [nM]
C/C(=C\C=C\[C@@H](C)COC(=O)N1CCCC1)[C@H]1OC(=O)C[C@H](O)CC[C@@](C)(O)[C@@H](OC(=O)N2CCN(C3CCCCCC3)CC2)/C=C/[C@@H]1C | -87.3 | 1.66 | > 1000 | 2.54 | 2.83
C/C(=C\C=C\[C@H](C)c1ccccn1)[C@H]1OC(=O)C[C@H](O)CC[C@@](C)(O)[C@@H](OC(=O)N2CCN(C3CCCCCC3)CC2)/C=C/[C@@H]1C | -90 | 71.8 | > 1000 | 65 | 5.95
CC(=O)O[C@H]1/C=C/[C@H](C)[C@@H](/C(C)=C/C=C/C(c2ccccn2)C(C)C)OC(=O)C[C@H](O)CC[C@@]1(C)O (stereo partly drawn) | – | – | – | – | 20.9
C/C(=C\C=C\[C@H](C)c1ccccn1)[C@H]1OC(=O)C[C@H](O)CC[C@@](C)(O)[C@@H](OC(=O)N2CCC(N3CCCCCC3)CC2)/C=C/[C@@H]1C | -93.8 | 13.6 | > 1000 | 7.18 | 2.35
CC(=O)O[C@H]1/C=C/[C@H](C)[C@@H](/C(C)=C/C=C/[C@@H](C)COC(=O)N2CCC[C@H]2C)OC(=O)C[C@H](O)CC[C@@]1(C)O | -79.3 | 2.11 | > 1000 | 0.983 | 2.72
CC[C@H](O)[C@@H](C)[C@H]1O[C@@H]1C[C@@](C)(O)/C=C/C=C(\C)[C@H]1OC(=O)C[C@H](O)CC[C@@](C)(OC)[C@@H](OC(=O)N(C)CCNC)/C=C/[C@@H]1C | – | – | – | – | 18.3
C/C(=C\C=C\C(C)c1ccncc1)[C@H]1OC(=O)C[C@H](O)CC[C@@](C)(O)[C@@H](OC(=O)N2CCN(C3CCCCCC3)CC2)/C=C/[C@@H]1C (stereo partly drawn) | -95.1 | 6.63 | > 1000 | 14 | 2.74
C/C(=C\C=C\[C@@H](C)COC(=O)N1CC[C@@H](O)C1)[C@H]1OC(=O)CCCCC[C@@H](OC(=O)N2CCN(C3CCCCCC3)CC2)/C=C/[C@@H]1C | -81.6 | 35.2 | > 1000 | 45.5 | 40.2
C/C(=C\C=C\[C@@H](C)COC(=O)N1CC[C@@H](O)C1)[C@H]1OC(=O)C[C@H](O)CC[C@H](C)[C@@H](OC(=O)N2CCN(C)CC2)/C=C/[C@@H]1C | -83.3 | 3.37 | > 1000 | 4.86 | 5.43
C/C(=C\C=C\C(C)c1cccnc1)[C@H]1OC(=O)C[C@H](O)CC[C@@](C)(O)[C@@H](OC(=O)N2CCC(N3CCC(F)(F)CC3)CC2)/C=C/[C@@H]1C (stereo partly drawn) | -2.9 | 94.8 | – | – | 30.9
CC(=O)O[C@H]1/C=C/[C@H](C)[C@@H](/C(C)=C/C=C/[C@@H](C)COC(=O)N2CCC[C@@H]2CO)OC(=O)C[C@H](O)CC[C@@]1(C)O | -83.4 | 35.1 | > 10000 | 24.7 | 80.4
C/C(=C\C=C\[C@@H](C)COC(=O)N1CC[C@@H](N(C)C)C1)[C@H]1OC(=O)C[C@H](O)CC[C@@](C)(O)[C@@H](OC(=O)N2CCN(C3CCCCCC3)CC2)/C=C/[C@@H]1C | -85.4 | 33 | 3990 | 30.2 | 9.7
C/C(=C\C=C\[C@@H](C)COC(=O)N1CCCC1)[C@H]1OC(=O)CCCCC[C@@H](OC(=O)N(C)C)/C=C/[C@@H]1C | -94.8 | 156 | 6380 | 135 | 71.1
C/C(=C\C=C\[C@@H](C)c1ccccn1)[C@H]1OC(=O)C[C@H](O)CC[C@H](C)[C@@H](OC(=O)N(C)C)/C=C/[C@@H]1C | 24 | 1720 | > 10000 | 479 | 142
C/C(=C\C=C\[C@@H](C)c1ccccn1)[C@H]1OC(=O)C[C@H](O)CC[C@@](C)(O)[C@@H](OC(=O)N2CCN(C3CCCCC3)CC2)/C=C/[C@@H]1C | -94.3 | 21.4 | > 1000 | 21.2 | 3.32
C/C(=C\C=C\[C@@H](C)c1ccccn1)[C@H]1OC(=O)C[C@H](O)CC[C@H](C)[C@@H](OC(=O)N2CCN(C)CC2)/C=C/[C@@H]1C | -94.3 | 8.07 | > 10000 | 15.3 | 3.78

Compound | Emax [1] [%] | GI50 [1] [nM] | GI50 [2] [nM] | GI50 [3] [nM] | IC50 [4] [nM]
CC[C@H](O)[C@@H](C)[C@H]1O[C@@H]1C[C@H](C)/C=C/C=C(\C)[C@H]1OC(=O)C[C@H](O)CC[C@@](C)(OC(C)=O)[C@@H](OC(=O)N2CCNCC2)/C=C/[C@@H]1C | -47.1 | 2.05 | – | – | 2.12
C/C(=C\C=C\[C@@H](C)COC(=O)N1CC[C@@H](O)C1)[C@H]1OC(=O)C[C@H](O)CC[C@H](C)[C@@H](OC(=O)N2CCN(C3CCCCCC3)CC2)/C=C/[C@@H]1C | -77.8 | 10.8 | > 1000 | 8.27 | 5.67
CC[C@H](O)[C@@H](C)[C@H]1O[C@@H]1C[C@H](C)/C=C/C=C(\C)[C@H]1OC(=O)C[C@H](O)CC[C@@](C)(OC(=O)N2CCNCC2)[C@@H](OC(C)=O)/C=C/[C@@H]1C | -78.9 | 0.86 | – | – | 2.08
C/C(=C\C=C\[C@@H](C)c1ccccn1)[C@H]1OC(=O)C[C@H](O)CC[C@@](C)(O)[C@@H](OC(=O)N2CCC(N3CC4CCC(C3)C4(F)F)CC2)/C=C/[C@@H]1C | -90.3 | 76.1 | – | – | 47.3
C/C(=C\C=C\[C@@H](C)c1ccccn1)[C@H]1OC(=O)C[C@H](O)CC[C@@](C)(O)[C@@H](O)/C=C/[C@@H]1C | 49.5 | 3980 | – | – | > 1200
CC[C@H](O)[C@@H](C)[C@H]1O[C@@H]1C[C@@](C)(O)/C=C/C=C(\C)[C@H]1OC(=O)C[C@H](O)CC[C@@](C)(OC(C)=O)[C@@H](OC(=O)N2C[C@@H]3C[C@H]2CN3)/C=C/[C@@H]1C | – | – | – | – | 16
CC[C@H](O)[C@@H](C)[C@H]1O[C@@H]1C[C@@](C)(O)/C=C/C=C(\C)[C@H]1OC(=O)C[C@H](O)CC[C@@](C)(OC(=O)N2CCNCC2)[C@@H](OC(C)=O)/C=C/[C@@H]1C | -74.2 | 23.5 | – | – | 5.92
CC[C@H](O)[C@@H](C)[C@H]1O[C@@H]1C[C@H](C)/C=C/C=C(\C)[C@H]1OC(=O)C[C@H](O)CC[C@@](C)(OC)[C@@H](OC(=O)N2CCN(C)CC2)/C=C/[C@@H]1C | – | – | – | – | 1.52
CC[C@H](O)[C@@H](C)[C@H]1O[C@@H]1C[C@@](C)(O)/C=C/C=C(\C)[C@H]1OC(=O)C[C@H](O)CC[C@@](C)(OC)[C@@H](OC(=O)N2CCN(CCCC(=O)O)CC2)/C=C/[C@@H]1C | – | – | – | – | 14.6
CCO[C@]1(C)CC[C@@H](O)CC(=O)O[C@H](/C(C)=C/C=C/[C@](C)(O)C[C@H]2O[C@@H]2[C@H](C)[C@@H](O)CC)[C@@H](C)/C=C/[C@@H]1OC(=O)N1CCNCC1 | -75.4 | 1.76 | – | – | 9.23
CC[C@H](O)[C@@H](C)[C@H]1O[C@@H]1C[C@@](C)(O)/C=C/C=C(\C)[C@H]1OC(=O)C[C@H](O)CC[C@@](C)(OC(C)=O)[C@@H](OC(=O)N2CCNCC2)/C=C/[C@@H]1C | -73.2 | 26.8 | – | – | 8.78
CC[C@H](O)[C@@H](C)[C@H]1O[C@@H]1C[C@@](C)(O)/C=C/C=C(\C)[C@H]1OC(=O)C[C@H](O)CC[C@@](C)(OC(C)=O)[C@@H](OC(=O)N2CCN(CCO)CC2)/C=C/[C@@H]1C | – | – | – | – | 24.3
C/C(=C\C=C\[C@@H](C)c1ccccn1)[C@H]1OC(=O)C[C@H](O)CC[C@@](C)(O)[C@@H](OC(=O)N2CC[N+](C)([O-])CC2)/C=C/[C@@H]1C | -81.2 | 45.4 | – | – | 5.89
C\C(=C/C=C/C=C/[C@@H](C)c1ccccn1)C1OC(=O)C[C@H](O)CC[C@@](C)(O)[C@@H](OC(=O)N2CCN(C3CCCCCC3)CC2)/C=C/[C@@H]1C (stereo partly drawn) | 11 | 720 | – | – | 120
CC[C@H](O)[C@@H](C)[C@H]1O[C@@H]1C[C@H](C)/C=C/C=C(\C)[C@H]1OC(=O)C[C@H](O)CC[C@@](C)(OC)[C@@H](OC(=O)N2CCNCC2)/C=C/[C@@H]1C | – | – | – | – | 0.99
CC[C@H](O)[C@@H](C)[C@H]1O[C@@H]1C[C@@](C)(O)/C=C/C=C(\C)[C@H]1OC(=O)C[C@H](O)CC[C@@](C)(OC)[C@@H](OC(=O)N2CCNC(CCC(=O)O)C2)/C=C/[C@@H]1C (stereo partly drawn) | – | – | – | – | 29.2
